Assay results reported in article PMC6269946, “Anti-Plasmodial Activity of Some Zulu Medicinal Plants and of Some Triterpenes Isolated from Them” (Molecules, 2013).
In brackets after ≈: the same amount, converted by molar mass. Read-outs that look alike come from different tables or passages of the source. Blank lines part the entries; values can stand above or below the compound they belong to.

What was measured:
[1] = system: chloroquine sensitive (CQS) strain of Plasmodium falciparum (D10); test: In vitro antiplasmodial activity, parasite lactate dehydrogenase assay; type: cell-based; conditions: for IC50: Plasmodium falciparum
Experimental: The test samples (crude extracts, isolates, and chemical derivatives) were tested in triplicate against a chloroquine sensitive (CQS) strain of Plasmodium falciparum (D10). Continuous in vitro cultures of asexual erythrocyte stages of P. falciparum were maintained using modified method of Trager and Jensen. Quantitative assessment of anti-plasmodial activity in vitro was determined via the parasite lactate dehydrogenase assay using a modified method described by Makler. The test samples were prepared to a 20 mg/mL stock solution in 100% DMSO and sonicated to enhance solubility. Stock solutions were stored at −20 °C. Further dilutions were prepared on the day of the experiment. Chloroquine and artesunate were used as the reference drugs for experiments. A full dose-response was performed for all active compounds to determine the concentration inhibiting 50% of parasite growth (IC50-value). Test samples were tested at a starting concentration of 100 μg/mL, which was then serially diluted 2-fold in complete medium to give 10 preparations of variable concentrations; with the lowest concentration being 0.2 μg/mL. The same dilution technique was used for all samples. CQ was tested at a starting concentration of 1,000 ng/mL. The highest concentration of solvent to which the parasite-infected erythrocytes were exposed to had no measurable effect on the parasite viability (data not shown). The IC50-values were obtained using a non-linear dose-response curve fitting analysis via Graph Pad Prism v.4.0 software (Graph Pad Prism, Inc: San Diego, CA, USA, 1994–2003).

Plasmodium berghei = test: In vivo antiplasmodial activity, four-day suppressive test in infected mice; set-up: species or system Swiss mice; conditions: P. berghei infected mice, oral for four consecutive days, smears on day five; chloroquine 5 mg/kg/day; dose not given (50-400 mg/kg/day groups)
Experimental: This study was carried out after the approval from the Ethical Committee on Animal Use and Care of the University of Zululand (UZREC 171110-030 PGD 2013/26). Swiss mice (20-25 g each) of both sexes were obtained from biomedical research unit (BRU) in the University of […], Durban. They were kept in plastic cages, and given standard laboratory diet and water ad libitum and maintained under laboratory conditions of temperature and 12 h light and 12 h dark cycle. The animals were allowed to acclimatize to the laboratory at a controlled temperature of 22 °C for 15 days before being subjected to the experiments. The animals were divided into seven groups (eight in each group) consisting of control, chloroquine (5 mg/kg/day), and the extract treated group. The extract treated group was sub divided into five sub groups that received 50, 100, 200, 300 and 400 mg/kg/day body weight respectively. A single donor mouse infected with Plasmodium berghei parasites was bled into sterile heparinized culture medium and the blood was diluted with RPMI 1640 medium. The healthy experimental mice were infected intravenously via a tail vein with 0.2 mL of the diluted blood containing 1 × 10^7 parasitized (Plasmodium berghei) red blood cells on day one. The antimalarial activity tests were performed using the four-day suppressive tests described by Peters et al.. The extracts dissolved in 0.5% carboxymethyl cellulose (CMC) were administered orally using cannula (equivalent to 0.2 mL solution per mouse) for four consecutive days. […] The percent parasitemia suppression was determined by counting the number of parasitized erythrocytes out of 500 red blood cells on random fields under the microscope. The average percentage suppression of parasitemia was calculated using the following formula: % suppression = A - B/C (1) where A = % parasitemia in untreated controls, B = % parasitemia in treated groups, and C = % parasitemia in untreated controls. The data were analyzed using the F-test.

[2] = P. falciparum CQS D10 strain, in vitro, pLDH assay, triplicate, starting concentration 100 μg/mL, read-out: IC50 (anti-plasmodial activity, concentration inhibiting 50% of parasite growth)

SMILES: C[C@H]1[C@H](C)CC[C@]2(C(=O)O)CC[C@]3(C)C(=CC[C@@H]4[C@@]5(C)CCC(=O)C(C)(C)[C@@H]5CC[C@]43C)[C@H]12 [3-oxo-ursolic acid]
IC50 [1, 2]: 7.3 µg/mL (≈ 16.1 µM)

IC50 ([1]; P. falciparum CQS D10 strain, in vitro, pLDH assay, values marked * = ng/mL, read-out: IC50 (anti-plasmodial activity), reference drugs): 0.0051 µg/mL (≈ 0.0133 µM)
SMILES: C[C@H]1[C@H](OC(=O)CCC(=O)O)O[C@@H]2O[C@@]3(C)CC[C@H]4[C@H](C)CC[C@@H]1[C@@]24OO3 [Artesunate, reference compound]

IC50 ([1]; D10, read-out: IC50 (anti-plasmodial activity), reference drugs): 0.0141 µg/mL (≈ 0.0441 µM)
SMILES: CCN(CC)CCCC(C)Nc1ccnc2cc(Cl)ccc12 (centres unmarked) [Chloroquine, reference compound]
Average % suppression (of parasitemia) (Plasmodium berghei): 83.43%

SMILES: CO[C@H]1CC[C@@]2(C)C(CC[C@@]3(C)C4=CC[C@@]5(C)CCC(C)(C)CC5[C@]4(C)CCC23)C1(C)C (some centres unmarked) [Sawamilletin, sawamilletin]
IC50 [1, 2]: > 100 µg/mL

SMILES: CC1(C)CC[C@]2(C)CC=C3[C@]4(C)CC[C@H]5C(C)(C)[C@@H](O)CC[C@]5(C)[C@H]4CC[C@@]3(C)[C@@H]2C1 [Taraxerol, taraxerol]
IC50 [1, 2]: > 100 µg/mL

SMILES: CC(=O)O[C@H]1CC[C@]2(C)[C@H]3CC=C4[C@@H]5[C@@H](C)[C@H](C)CC[C@]5(C(=O)O)CC[C@@]4(C)[C@]3(C)CC[C@H]2C1(C)C [Ursolic acid acetate, 3β-acetylursolic acid]
IC50 [1, 2]: 1.9 µg/mL
Increase in the in vitro anti-malarial activity relative to ursolic acid ([1]; acetate derivative versus ursolic acid, P. falciparum D10): 72%
Average % parasitemia (Plasmodium berghei): 0.07%
Average % suppression (of parasitemia) (Plasmodium berghei): 94.01%

SMILES: C[C@H]1[C@H](C)CC[C@]2(C(=O)O)CC[C@]3(C)C(=CC[C@@H]4[C@@]5(C)CC[C@H](O)C(C)(C)[C@@H]5CC[C@]43C)[C@H]12 [Ursolic acid, ursolic acid]
IC50 [1, 2]: 6.8 µg/mL (≈ 14.9 µM)
